Among the data in patent US20230295119A1, “SUBSTITUTED PYRIDINES FOR THE TREATMENT OF INFLAMMATORY DISEASES” (GOSSAMER BIO SERVICES, INC., priority 2020, published 2023) are IC50 values, retold here.

In one experiment the target is human JAK3 (Homo sapiens (Human), UniProt P52333). The experiment can be described thus: JAK3 TR-FRET kinase assay. To be noted: JAK3 0.0125 nM. The format is biochemical. (In general: In TR-FRET formats the signal depends on donor and acceptor labels being close together.)
A further experiment addresses TYK2 JH2 domain (Homo sapiens (Human), UniProt P29597). The experiment can be described thus: TYK2 JH2 NanoBRET assay. The format is binding. Conditions: Table 20, read-out: TYK2 IC50. The gist of the method: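 HEK293T cells transiently expressing NanoLuc-TYK2 JH2 fusion, incubated 2 h with compound and NanoBRET K10 tracer (0.5 µM final). Target engagement read as acceptor/donor BRET ratio after Nano-Glo substrate plus extracellular NanoLuc inhibitor.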
Background: Bioluminescence resonance energy transfer reports proximity on the nanometre scale.

For another experiment, the target named is human JAK2 (Homo sapiens (Human), UniProt O60674). Put plainly: JAK2 TR-FRET kinase assay. The format is biochemical. To be noted: JAK2 0.025 nM.
A further experiment concerns the target human JAK1 (Homo sapiens (Human), UniProt P23458). The experiment can be described thus: JAK1 TR-FRET kinase assay. The format is biochemical. To be noted: TR-FRET, JAK1 2.5 nM.

Where only a bound is given, the exact number is not on record here.

human JAK1, sequence (P23458 whole entry): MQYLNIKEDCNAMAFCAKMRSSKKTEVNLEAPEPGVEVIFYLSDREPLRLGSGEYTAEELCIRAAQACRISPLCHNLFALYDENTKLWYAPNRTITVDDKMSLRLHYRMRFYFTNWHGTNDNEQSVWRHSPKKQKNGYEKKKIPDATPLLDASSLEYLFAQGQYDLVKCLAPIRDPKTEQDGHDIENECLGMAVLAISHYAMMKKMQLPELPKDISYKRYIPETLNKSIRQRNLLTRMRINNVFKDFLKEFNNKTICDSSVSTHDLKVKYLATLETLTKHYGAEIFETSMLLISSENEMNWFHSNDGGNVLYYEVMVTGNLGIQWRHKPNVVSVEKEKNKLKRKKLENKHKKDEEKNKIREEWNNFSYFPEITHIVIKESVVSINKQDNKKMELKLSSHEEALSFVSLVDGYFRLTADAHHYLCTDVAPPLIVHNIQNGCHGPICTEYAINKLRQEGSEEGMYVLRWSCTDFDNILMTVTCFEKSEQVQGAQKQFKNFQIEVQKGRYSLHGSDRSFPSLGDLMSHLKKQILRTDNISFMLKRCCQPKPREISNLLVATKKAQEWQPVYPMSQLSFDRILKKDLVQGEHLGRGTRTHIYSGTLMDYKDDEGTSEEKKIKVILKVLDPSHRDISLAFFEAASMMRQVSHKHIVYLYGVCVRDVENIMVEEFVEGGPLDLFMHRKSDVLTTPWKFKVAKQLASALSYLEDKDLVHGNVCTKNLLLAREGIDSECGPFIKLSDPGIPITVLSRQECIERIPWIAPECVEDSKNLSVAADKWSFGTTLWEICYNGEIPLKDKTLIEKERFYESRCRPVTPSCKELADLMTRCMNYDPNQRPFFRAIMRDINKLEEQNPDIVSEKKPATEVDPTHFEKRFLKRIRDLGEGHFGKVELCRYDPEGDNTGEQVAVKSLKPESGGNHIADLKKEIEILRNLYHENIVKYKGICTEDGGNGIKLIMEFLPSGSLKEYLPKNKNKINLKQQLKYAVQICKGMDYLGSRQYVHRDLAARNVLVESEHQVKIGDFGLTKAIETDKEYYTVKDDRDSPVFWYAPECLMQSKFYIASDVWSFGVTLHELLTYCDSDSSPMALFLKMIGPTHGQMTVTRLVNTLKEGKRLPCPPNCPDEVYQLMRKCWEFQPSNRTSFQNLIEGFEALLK
human JAK2, sequence (O60674 whole entry): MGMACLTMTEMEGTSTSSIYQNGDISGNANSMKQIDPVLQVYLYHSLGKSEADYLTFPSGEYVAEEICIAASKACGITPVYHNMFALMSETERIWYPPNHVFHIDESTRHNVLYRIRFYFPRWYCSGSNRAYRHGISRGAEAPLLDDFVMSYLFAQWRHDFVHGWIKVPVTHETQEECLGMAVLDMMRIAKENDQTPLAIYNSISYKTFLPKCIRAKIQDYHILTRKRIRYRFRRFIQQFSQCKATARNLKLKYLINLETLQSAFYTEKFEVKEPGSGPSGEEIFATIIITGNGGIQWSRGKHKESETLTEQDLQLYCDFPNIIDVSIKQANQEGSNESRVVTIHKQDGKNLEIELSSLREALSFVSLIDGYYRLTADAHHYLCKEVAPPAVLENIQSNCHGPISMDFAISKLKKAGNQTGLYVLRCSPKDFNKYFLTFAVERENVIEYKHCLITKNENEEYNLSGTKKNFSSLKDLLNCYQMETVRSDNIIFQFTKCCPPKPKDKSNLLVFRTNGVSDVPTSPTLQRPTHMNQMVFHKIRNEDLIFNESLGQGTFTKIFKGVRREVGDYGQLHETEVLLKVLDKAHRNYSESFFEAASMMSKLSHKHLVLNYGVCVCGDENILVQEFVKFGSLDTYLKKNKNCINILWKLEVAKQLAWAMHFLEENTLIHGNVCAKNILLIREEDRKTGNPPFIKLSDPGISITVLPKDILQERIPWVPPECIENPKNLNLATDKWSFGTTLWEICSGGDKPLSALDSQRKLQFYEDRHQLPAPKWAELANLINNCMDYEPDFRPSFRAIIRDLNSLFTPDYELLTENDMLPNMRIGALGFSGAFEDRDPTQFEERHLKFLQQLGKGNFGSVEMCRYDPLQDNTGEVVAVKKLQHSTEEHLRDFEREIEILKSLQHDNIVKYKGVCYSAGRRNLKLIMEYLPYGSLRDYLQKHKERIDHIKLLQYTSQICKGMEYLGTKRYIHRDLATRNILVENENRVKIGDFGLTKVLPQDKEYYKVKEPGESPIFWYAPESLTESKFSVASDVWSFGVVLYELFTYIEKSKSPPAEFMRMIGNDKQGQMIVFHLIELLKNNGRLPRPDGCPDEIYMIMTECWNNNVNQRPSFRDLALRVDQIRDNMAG
TYK2 JH2 domain, sequence (P29597 589-875): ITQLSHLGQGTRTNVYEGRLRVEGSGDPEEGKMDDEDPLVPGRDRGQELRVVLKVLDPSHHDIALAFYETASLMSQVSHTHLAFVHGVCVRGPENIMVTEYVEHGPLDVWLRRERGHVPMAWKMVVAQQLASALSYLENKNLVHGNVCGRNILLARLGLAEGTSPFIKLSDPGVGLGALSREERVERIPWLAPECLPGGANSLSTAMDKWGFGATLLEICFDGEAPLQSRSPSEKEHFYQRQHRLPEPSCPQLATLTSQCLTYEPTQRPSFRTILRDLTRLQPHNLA
human JAK3, sequence (P52333 whole entry, the tested form may be a part): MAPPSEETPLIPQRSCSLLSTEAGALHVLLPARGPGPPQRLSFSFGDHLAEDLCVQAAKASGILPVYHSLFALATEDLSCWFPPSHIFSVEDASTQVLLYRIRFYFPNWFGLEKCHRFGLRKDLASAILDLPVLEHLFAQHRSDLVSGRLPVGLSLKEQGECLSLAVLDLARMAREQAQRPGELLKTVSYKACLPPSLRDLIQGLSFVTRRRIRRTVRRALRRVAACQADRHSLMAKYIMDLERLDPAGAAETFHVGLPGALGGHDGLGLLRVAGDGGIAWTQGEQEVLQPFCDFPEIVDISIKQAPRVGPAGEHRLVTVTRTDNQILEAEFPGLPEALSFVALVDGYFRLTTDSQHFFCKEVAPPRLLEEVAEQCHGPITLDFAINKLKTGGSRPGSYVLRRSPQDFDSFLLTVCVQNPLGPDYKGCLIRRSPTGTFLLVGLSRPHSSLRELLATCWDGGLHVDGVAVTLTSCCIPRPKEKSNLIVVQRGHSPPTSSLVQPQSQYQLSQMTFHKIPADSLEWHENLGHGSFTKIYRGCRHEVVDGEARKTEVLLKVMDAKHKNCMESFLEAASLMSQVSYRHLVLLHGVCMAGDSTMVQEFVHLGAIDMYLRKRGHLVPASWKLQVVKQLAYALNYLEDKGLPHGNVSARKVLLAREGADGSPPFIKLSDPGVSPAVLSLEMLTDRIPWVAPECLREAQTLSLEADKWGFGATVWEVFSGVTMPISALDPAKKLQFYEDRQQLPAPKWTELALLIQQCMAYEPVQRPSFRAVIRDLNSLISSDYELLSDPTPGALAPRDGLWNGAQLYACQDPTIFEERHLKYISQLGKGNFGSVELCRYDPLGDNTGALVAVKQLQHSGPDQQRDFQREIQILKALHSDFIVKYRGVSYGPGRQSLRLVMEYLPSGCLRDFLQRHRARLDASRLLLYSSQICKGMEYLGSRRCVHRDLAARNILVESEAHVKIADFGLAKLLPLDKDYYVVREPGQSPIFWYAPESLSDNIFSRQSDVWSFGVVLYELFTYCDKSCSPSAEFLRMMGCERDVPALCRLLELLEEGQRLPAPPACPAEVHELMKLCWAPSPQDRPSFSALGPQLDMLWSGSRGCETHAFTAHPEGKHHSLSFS

What is called IC50 is the concentration that gives 50% inhibition. As for `CCC(=O)c1cnc(Nc2ccc(O[C@@H]3CCN(C)C3)c(C)n2)cc1Nc1cccc(-c2ncn(C)n2)c1OC` [Compound 18YYY], the IC50 against human JAK3 was 50 to 500 nM; on TYK2 JH2 domain it was less than 5 nM; against human JAK2, no less than 500 nM; at human JAK1 it was no less than 500 nM.
As for `CCC(=O)c1cnc(Nc2cnc(OCCN3CC[C@@H](F)C3)cn2)cc1Nc1cccc(-c2ncn(C)n2)c1OC` [Compound 18YY], the 50% inhibitory concentration (IC50) at human JAK3 is no less than 500 nM; on TYK2 JH2 domain it was 5 to 50 nM; against human JAK2, no less than 500 nM; at human JAK1, no less than 500 nM.
Consider `CCC(=O)c1cnc(Nc2ccc(OC3CCN(C)CC3)cn2)cc1Nc1cccc(-c2ncn(C)n2)c1OC` [Compound 18Y], for which the IC50 on human JAK3 was 50 to 500 nM; at TYK2 JH2 domain, less than 5 nM; on human JAK2 it was 50 to 500 nM; against human JAK1, no less than 500 nM.
On to `CCC(=O)c1cnc(Nc2ccc(OC3COC3)c(C)n2)cc1Nc1cccc(-c2ncn(C)n2)c1OC` [Compound 18ZZZ], for which the IC50 at human JAK3 is 50 to 500 nM; on TYK2 JH2 domain, less than 5 nM; against human JAK2, 50 to 500 nM; on human JAK1, no less than 500 nM.
For `CCC(=O)c1cnc(Nc2cnc(OCCN3CCC(F)(F)C3)cn2)cc1Nc1cccc(-c2ncn(C)n2)c1OC` [Compound 18ZZ], the IC50 was no less than 500 nM against human JAK3, 5 to 50 nM at TYK2 JH2 domain, no less than 500 nM at human JAK2 and no less than 500 nM against human JAK1.
On to `CCC(=O)c1cnc(Nc2ccc(OC3COC3)cn2)cc1Nc1cccc(-c2ncn(C)n2)c1OC` [Compound 18Z], for which the IC50 at human JAK3 is no less than 500 nM; on TYK2 JH2 domain it was less than 5 nM; against human JAK2, no less than 500 nM; at human JAK1, no less than 500 nM.
For `CCC(=O)c1cnc(Nc2cnc(C(F)(F)CNC)cn2)cc1Nc1cccc(-c2ncn(C)n2)c1OC` [Compound 19B], the IC50 against human JAK3 is no less than 500 nM; on TYK2 JH2 domain, 50 to 500 nM; on human JAK2, no less than 500 nM; against human JAK1, no less than 500 nM.
In the case of `CCC(=O)c1cnc(Nc2cnc(C(F)(F)CN(C)C)cn2)cc1Nc1cccc(-c2ncn(C)n2)c1OC` [Compound 19C], the IC50 on human JAK3 was no less than 500 nM; on TYK2 JH2 domain, 5 to 50 nM; against human JAK2 it was no less than 500 nM; at human JAK1, no less than 500 nM.
For the molecule `CCC(=O)c1cnc(Nc2cnc(C(F)(F)CO)cn2)cc1Nc1cccc(-c2ncn(C)n2)c1OC` [Compound 19D], the IC50 is no less than 500 nM on human JAK3, 5 to 50 nM on TYK2 JH2 domain, no less than 500 nM against human JAK2 and no less than 500 nM on human JAK1.
As for `CCC(=O)c1cnc(Nc2cnc(C(F)(F)CN3CCCC3)cn2)cc1Nc1cccc(-c2ncn(C)n2)c1OC` [Compound 19E], the IC50 is no less than 500 nM at human JAK3, 5 to 50 nM on TYK2 JH2 domain, no less than 500 nM against human JAK2 and no less than 500 nM on human JAK1.
As for `CCC(=O)c1cnc(Nc2ccn(-c3ccccc3)c(=O)n2)cc1Nc1cccc(-c2ncn(C)n2)c1OC` [Compound 20A, 4-((4-((2-methoxy-3-(1-methyl-1H-1,2,4-triazol-3-yl)phenyl)amino)-5-propionylpyridin-2-yl)amino)-1-phenylpyrimidin-2(1H)-one], the IC50 against human JAK3 was no less than 500 nM; at TYK2 JH2 domain, less than 5 nM; against human JAK2, no less than 500 nM; on human JAK1, no less than 500 nM.
Regarding `CCC(=O)c1cnc(Nc2ccn([C@H]3C[C@@H](OC)C3)n2)cc1Nc1cccc(-c2ncn(C)n2)c1OC` [Compound 21A, 1-(4-((2-methoxy-3-(1-methyl-1H-1,2,4-triazol-3-yl)phenyl)amino)-6-((1-(3-methoxycyclobutyl)-1H-pyrazol-3-yl)amino)pyridin-3-yl)propan-1-one], the IC50 is no less than 500 nM on human JAK3, 5 to 50 nM at TYK2 JH2 domain, no less than 500 nM at human JAK2 and no less than 500 nM against human JAK1.
For `CCC(=O)c1cnc(Nc2cc(OCCO)n(C)n2)cc1Nc1cccc(-c2ncn(C)n2)c1OC` [Compound 21AA], the IC50 against human JAK3 was 50 to 500 nM; on TYK2 JH2 domain, 5 to 50 nM; against human JAK2, no less than 500 nM; against human JAK1, no less than 500 nM.
As to `CCC(=O)c1cnc(Nc2ccn([C@H]3C[C@@H](OC(F)F)C3)n2)cc1Nc1cccc(-c2ncn(C)n2)c1OC` [Compound 21BB], the IC50 was no less than 500 nM against human JAK3, less than 5 nM on TYK2 JH2 domain, no less than 500 nM against human JAK2 and no less than 500 nM on human JAK1.
Take `CCC(=O)c1cnc(Nc2ccn(CCOC)n2)cc1Nc1cccc(-c2ncn(C)n2)c1OC` [Compound 21B]: the IC50 against human JAK3 is no less than 500 nM; on TYK2 JH2 domain, 5 to 50 nM; against human JAK2, no less than 500 nM; against human JAK1 it was no less than 500 nM.
Regarding `CCO[C@H]1C[C@@H](n2ccc(Nc3cc(Nc4cccc(-c5ncn(C)n5)c4OC)c(C(=O)CC)cn3)n2)C1` [Compound 21CC], the IC50 was no less than 500 nM against human JAK3, 5 to 50 nM at TYK2 JH2 domain, no less than 500 nM against human JAK2 and no less than 500 nM against human JAK1.
Turning to `CCC(=O)c1cnc(Nc2ccn(CCN3CCCC3)n2)cc1Nc1cccc(-c2ncn(C)n2)c1OC` [Compound 21C], the IC50 was no less than 500 nM against human JAK3, 5 to 50 nM on TYK2 JH2 domain, no less than 500 nM on human JAK2 and no less than 500 nM at human JAK1.
For `CCC(=O)c1cnc(Nc2cc(C)n([C@H]3C[C@@H](O)C3)n2)cc1Nc1cccc(-c2ncn(C)n2)c1OC` [Compound 21DD], the IC50 was no less than 500 nM at human JAK3, 5 to 50 nM at TYK2 JH2 domain, no less than 500 nM at human JAK2 and no less than 500 nM at human JAK1.
On to `CCC(=O)c1cnc(Nc2ccn(S(=O)(=O)C3CC3)n2)cc1Nc1cccc(-c2ncn(C)n2)c1OC` [Compound 21D], for which the IC50 was no less than 500 nM on human JAK3, 5 to 50 nM at TYK2 JH2 domain, no less than 500 nM at human JAK2 and no less than 500 nM on human JAK1.
Turning to `CCC(=O)c1cnc(Nc2cc(C)n([C@H]3C[C@@H](OC)C3)n2)cc1Nc1cccc(-c2ncn(C)n2)c1OC` [Compound 21EE], the IC50 at human JAK3 is no less than 500 nM; at TYK2 JH2 domain it was less than 5 nM; against human JAK2, no less than 500 nM; against human JAK1 it was no less than 500 nM.
As for `CCC(=O)c1cnc(Nc2ccn(-c3ccccn3)n2)cc1Nc1cccc(-c2ncn(C)n2)c1OC` [Compound 21E], the IC50 was no less than 500 nM against human JAK3, less than 5 nM on TYK2 JH2 domain, no less than 500 nM on human JAK2 and no less than 500 nM at human JAK1.
In the case of `CCO[C@H]1C[C@@H](n2nc(Nc3cc(Nc4cccc(-c5ncn(C)n5)c4OC)c(C(=O)CC)cn3)cc2C)C1` [Compound 21FF], the IC50 on human JAK3 is no less than 500 nM; on TYK2 JH2 domain, less than 5 nM; against human JAK2 it was no less than 500 nM; against human JAK1 it was no less than 500 nM.
For the molecule `CCC(=O)c1cnc(Nc2csc(CN3CCCC3)n2)cc1Nc1cccc(-c2ncn(C)n2)c1OC` [Compound 21F], the IC50 is no less than 500 nM on human JAK3, 5 to 50 nM at TYK2 JH2 domain, no less than 500 nM at human JAK2 and no less than 500 nM on human JAK1.
Regarding `CCC(=O)c1cnc(Nc2ccn(C3CC(F)(F)C3)n2)cc1Nc1cccc(-c2ncn(C)n2)c1OC` [Compound 21GG], the IC50 was no less than 500 nM on human JAK3, 5 to 50 nM at TYK2 JH2 domain, no less than 500 nM at human JAK2 and no less than 500 nM at human JAK1.
For `CCC(=O)c1cnc(Nc2cc(CN3CCCC3)n(C)n2)cc1Nc1cccc(-c2ncn(C)n2)c1OC` [Compound 21G], the 50% inhibitory concentration (IC50) is 50 to 500 nM against human JAK3, less than 5 nM on TYK2 JH2 domain, 50 to 500 nM on human JAK2 and no less than 500 nM against human JAK1.
For `CCC(=O)c1cnc(Nc2nc(CN3CCCC3)ns2)cc1Nc1cccc(-c2ncn(C)n2)c1OC` [Compound 21H], the 50% inhibitory concentration (IC50) is no less than 500 nM against human JAK3, 50 to 500 nM on TYK2 JH2 domain, no less than 500 nM against human JAK2 and no less than 500 nM at human JAK1.
As for `CCC(=O)c1cnc(Nc2cc(CN3CCCC3)sn2)cc1Nc1cccc(-c2ncn(C)n2)c1OC` [Compound 21I], the IC50 is 50 to 500 nM on human JAK3, less than 5 nM at TYK2 JH2 domain, 50 to 500 nM against human JAK2 and no less than 500 nM on human JAK1.
With `CCC(=O)c1cnc(Nc2ccn([C@H]3C[C@@H](O)C3)n2)cc1Nc1cccc(-c2ncn(C)n2)c1OC` [Compound 21J], the IC50 was no less than 500 nM at human JAK3, 5 to 50 nM at TYK2 JH2 domain, no less than 500 nM at human JAK2 and no less than 500 nM against human JAK1.
Consider `CCC(=O)c1cnc(Nc2ccn([C@H]3C[C@H](OC)C3)n2)cc1Nc1cccc(-c2ncn(C)n2)c1OC` [Compound 21L], for which the half-maximal inhibitory concentration (IC50) is no less than 500 nM against human JAK3, 5 to 50 nM at TYK2 JH2 domain, no less than 500 nM against human JAK2 and no less than 500 nM at human JAK1.
In the case of `CCC(=O)c1cnc(Nc2ccn(CCC#N)n2)cc1Nc1cccc(-c2ncn(C)n2)c1OC` [Compound 21M], the IC50 against human JAK3 is 50 to 500 nM; at TYK2 JH2 domain it was 5 to 50 nM; on human JAK2 it was no less than 500 nM; against human JAK1 it was no less than 500 nM.
Take `CCC(=O)c1cnc(Nc2ccn([C@H]3C[C@@H](C#N)C3)n2)cc1Nc1cccc(-c2ncn(C)n2)c1OC` [Compound 21N]: the 50% inhibitory concentration (IC50) at human JAK3 is no less than 500 nM; at TYK2 JH2 domain, 5 to 50 nM; on human JAK2 it was no less than 500 nM; against human JAK1 it was no less than 500 nM.
On to `CCC(=O)c1cnc(Nc2cn([C@H]3C[C@@H](O)C3)cn2)cc1Nc1cccc(-c2ncn(C)n2)c1OC` [Compound 21P], for which the IC50 on human JAK3 is no less than 500 nM; on TYK2 JH2 domain, 5 to 50 nM; against human JAK2 it was no less than 500 nM; against human JAK1, no less than 500 nM.
For the molecule `CCC(=O)c1cnc(Nc2ccn(CC3(C)COC3)n2)cc1Nc1cccc(-c2ncn(C)n2)c1OC` [Compound 21Q], the IC50 against human JAK3 is 50 to 500 nM; at TYK2 JH2 domain, 50 to 500 nM; on human JAK2, no less than 500 nM; at human JAK1 it was no less than 500 nM.
In the case of `CCC(=O)c1cnc(Nc2ccn(CC3COC3)n2)cc1Nc1cccc(-c2ncn(C)n2)c1OC` [Compound 21R], the IC50 against human JAK3 was 50 to 500 nM; on TYK2 JH2 domain, 5 to 50 nM; against human JAK2, no less than 500 nM; at human JAK1 it was no less than 500 nM.
